Active and inactive are the calls of the source.
Legend:
[1] = luciferase reporter signal suppression in cells – H4 neuroglioma cells, luminescence, dose response (AID 1990); format: functional, cell-based
Cytochrome P450 2C9 = Cytochrome P450 2C9 (Homo sapiens, UniProt P11712)
[2] = alpha-synuclein stem-loop luciferase translation blockers – H4 neuroglioma cells, luminescence, confirmation (AID 1988); format: functional, cell-based
[3] = Luminescence Cell-Based Dose Response HTS to Identify Inhibitors of 5'UTR Stem-Loop Driven Prion Protein mRNA Translation in H4 Neuroglioblastoma Cells. [Related pubchem assays: 1827 (Project Summary), 1813 (Primary HTS)]; format: functional
[4] = molecular target: T1, Endoribonuclease toxin MazF (Escherichia coli K-12, UniProt P0AE70); experiment: activation of MazEF endoribonuclease cleavage – biochemical, fluorescence, single-stranded RNA substrate, uHTS hits, dose response (AID 588481); format: functional
T1 sequence (P0AE70 whole entry): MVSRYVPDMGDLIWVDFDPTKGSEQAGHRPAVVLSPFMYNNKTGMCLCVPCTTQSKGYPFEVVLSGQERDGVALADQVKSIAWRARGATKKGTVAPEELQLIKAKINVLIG

[5] = molecular target: T1, Endoribonuclease toxin MazF; experiment: substrate-only fluorescence increase artefacts – biochemical, single-stranded RNase substrate, counter-screen for MazEF activator project, dose response (AID 588502); format: functional
Vero = experiment: cells; format: functional; details: Chlorocebus sabaeus
[6] = Vero E6 cell cytotoxicity, dose response, cytotoxicity control for non-replicating M. tuberculosis project, secondary assay (AID 492998); format: functional, VeroE6; details: Vero C1008
cells [7] = format: functional
Protein skinhead-1 = molecular target: T2, Protein skinhead-1 (Caenorhabditis elegans, UniProt P34707); format: functional
T2 sequence (P34707 whole entry): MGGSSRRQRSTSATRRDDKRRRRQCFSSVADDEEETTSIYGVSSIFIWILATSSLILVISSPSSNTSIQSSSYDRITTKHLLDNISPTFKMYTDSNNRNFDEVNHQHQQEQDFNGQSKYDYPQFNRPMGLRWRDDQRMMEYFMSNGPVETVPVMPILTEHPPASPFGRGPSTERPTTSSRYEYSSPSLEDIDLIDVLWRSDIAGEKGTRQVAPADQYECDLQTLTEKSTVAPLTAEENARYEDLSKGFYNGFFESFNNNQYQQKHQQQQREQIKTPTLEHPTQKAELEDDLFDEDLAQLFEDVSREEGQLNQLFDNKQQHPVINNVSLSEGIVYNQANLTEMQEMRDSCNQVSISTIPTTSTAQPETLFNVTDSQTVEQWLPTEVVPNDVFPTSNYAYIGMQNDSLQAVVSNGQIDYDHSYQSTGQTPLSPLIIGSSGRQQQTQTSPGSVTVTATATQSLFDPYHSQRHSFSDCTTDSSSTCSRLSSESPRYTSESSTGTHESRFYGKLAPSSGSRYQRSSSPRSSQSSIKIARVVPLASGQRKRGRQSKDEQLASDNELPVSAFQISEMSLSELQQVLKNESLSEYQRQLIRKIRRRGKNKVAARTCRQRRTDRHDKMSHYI

cells [8] = format: functional, cell-based
cells [9] = format: functional, cell-based; remark: listed apart in the source
[10] = Luminescence Cell-Based Dose Retest to Confirm Inhibitors of Cancer Stem Cells. [Related pubchem assays (depositor defined):AID2717, AID2721]; format: functional; details: Homo sapiens
Cytochrome P450 2C19 = Cytochrome P450 2C19 (Homo sapiens, UniProt P33261); experiment: Cytochrome panel assay with activity outcomes. Panel member name: p450-cyp2c19 Compounds with AC50 equal or less than 10 uM are considered active; format: functional; details: read-out: AC50
Cytochrome P450 3A4 = Cytochrome P450 3A4 (Homo sapiens, UniProt P08684);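 note: CYP3A4 tested as one member of a cytochrome P450 panel screen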
[11] = viability of HCT116 lacking mutant beta-catenin – cell-based, human colon tumor, dose response (AID 1045); format: functional;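 note: HCT116 colon tumor cells with beta catenin knocked out; cells exposed to compound for 60 hours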
[12] = HepG2 cell cytotoxicity, dose response, cytotoxicity control for non-replicating M. tuberculosis project (AID 489018); format: functional; details: Mycobacterium tuberculosis
[13] = THP-1 cell cytotoxicity, dose response, cytotoxicity control for non-replicating M. tuberculosis project (AID 489025); format: functional
[14] = viability of PTEN-deleted HCT116 cells – cell-based, HCT116 PTEN knockout, dose response (AID 1047); format: functional;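 note: HCT116 colon tumor cells with PTEN knocked out; cells exposed to compound for 60 hours before readout; potency for loss of cell viability measured by luminescence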
Streptococcus = experiment: GAS UMAA2166 growth inhibition – luminescence, BacTiterGlo, counter-screen for streptokinase expression inhibitor project, dose response (AID 1915); format: functional, organism-based;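 note: potency for reduction of bacterial viability or growth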
Streptokinase A = molecular target: T3, Streptokinase A (Streptococcus pyogenes serotype M1, UniProt P10520); experiment: viability-normalized secreted streptokinase activity reduction – plasminogen activation absorbance, OD405, dose response (AID 1914); format: functional, Streptococcus pyogenes M1 GAS;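 note: secreted streptokinase activity via plasminogen activation per viability signal from cell pellet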
T3 sequence (P10520 whole entry): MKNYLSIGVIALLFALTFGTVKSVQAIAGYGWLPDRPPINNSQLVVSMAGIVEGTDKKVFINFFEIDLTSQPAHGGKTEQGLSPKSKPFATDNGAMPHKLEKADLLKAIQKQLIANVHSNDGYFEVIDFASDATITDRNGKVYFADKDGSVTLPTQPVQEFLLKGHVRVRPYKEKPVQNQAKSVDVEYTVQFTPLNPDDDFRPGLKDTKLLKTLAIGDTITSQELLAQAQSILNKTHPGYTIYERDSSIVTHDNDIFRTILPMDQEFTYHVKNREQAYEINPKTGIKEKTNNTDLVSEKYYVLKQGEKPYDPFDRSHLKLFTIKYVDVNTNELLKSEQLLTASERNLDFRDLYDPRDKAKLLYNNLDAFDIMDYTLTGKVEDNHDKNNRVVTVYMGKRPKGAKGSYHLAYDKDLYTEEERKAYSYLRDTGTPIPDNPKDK

[15] = system: Streptococcus sp. 'group A'; experiment: Streptococcus pyogenes SK(-)GAS viability under kanamycin – luminescence, BacTiterGlo, confirmation, counter-screen for streptokinase expression inhibitor project, dose response (AID 1900); format: functional, organism-based
[16] = molecular target: FAD-linked sulfhydryl oxidase ALR (Homo sapiens, UniProt P55789); experiment: ALR-catalysed DTT oxidation blockers – biochemical, H2O2 detection, luminescence, cherry-pick, dose response (AID 493248)
Large T antigen = Large T antigen (Simian virus 40, UniProt P03070); format: functional, Betapolyomavirus macacae;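 note: Confirmatory-stage PubChem screen for compounds that inhibit SV40 T antigen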
[17] = NIH-3T3 fibroblast cytotoxicity, dose response, cytotoxicity control, cell-based, fluorescence, Alamar Blue, secondary assay (AID 2327); format: functional;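 note: NIH-3T3 mouse fibroblasts cultured with fluconazole at 8 µg/mL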
[18] = fluconazole-exposed Candida albicans growth modulators – fluorescence, retest, confirmation (AID 2467); format: functional, cell-based
H9c2 = experiment: cells; format: functional, cell-based; details: Rattus norvegicus, H9c2, Myocardium;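 note: confirmatory concentration-response retest of ultra-high-throughput screening hits for modulation of myocardial damage; cell death induced by hydrogen peroxide oxidative stress; compound pretreatment for 60 min then peroxide exposure for 2 h; potency is for protecting the cells against peroxide damage rather than for killing them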

Sequence of Cytochrome P450 2C9 (P11712 whole entry): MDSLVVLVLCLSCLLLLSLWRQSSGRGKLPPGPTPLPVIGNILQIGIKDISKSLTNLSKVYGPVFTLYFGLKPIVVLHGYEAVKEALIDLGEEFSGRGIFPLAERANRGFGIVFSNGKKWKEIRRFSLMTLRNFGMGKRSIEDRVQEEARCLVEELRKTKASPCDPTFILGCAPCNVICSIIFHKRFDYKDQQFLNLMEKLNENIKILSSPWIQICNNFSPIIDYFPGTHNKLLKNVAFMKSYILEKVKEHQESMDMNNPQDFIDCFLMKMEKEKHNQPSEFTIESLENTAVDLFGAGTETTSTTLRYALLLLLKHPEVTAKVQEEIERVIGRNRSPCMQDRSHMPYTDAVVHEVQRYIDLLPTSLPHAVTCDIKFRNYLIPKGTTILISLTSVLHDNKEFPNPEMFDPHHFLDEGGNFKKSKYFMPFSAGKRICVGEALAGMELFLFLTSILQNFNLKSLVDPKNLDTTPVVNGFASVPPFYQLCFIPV
Sequence of Cytochrome P450 2C19 (P33261 whole entry): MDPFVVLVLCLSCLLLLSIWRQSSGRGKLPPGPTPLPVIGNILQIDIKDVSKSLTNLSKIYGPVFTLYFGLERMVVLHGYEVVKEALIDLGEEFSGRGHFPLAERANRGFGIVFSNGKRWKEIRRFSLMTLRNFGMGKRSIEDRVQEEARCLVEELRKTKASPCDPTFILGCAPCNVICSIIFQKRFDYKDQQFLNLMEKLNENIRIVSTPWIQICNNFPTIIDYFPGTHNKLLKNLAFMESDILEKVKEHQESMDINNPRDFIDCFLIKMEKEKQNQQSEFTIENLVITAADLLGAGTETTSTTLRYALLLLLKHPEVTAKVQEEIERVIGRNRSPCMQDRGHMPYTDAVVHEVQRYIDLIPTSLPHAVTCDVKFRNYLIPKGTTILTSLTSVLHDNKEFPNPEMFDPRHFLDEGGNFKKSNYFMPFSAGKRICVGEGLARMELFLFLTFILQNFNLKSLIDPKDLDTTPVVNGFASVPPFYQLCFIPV
Sequence of FAD-linked sulfhydryl oxidase ALR (P55789 whole entry): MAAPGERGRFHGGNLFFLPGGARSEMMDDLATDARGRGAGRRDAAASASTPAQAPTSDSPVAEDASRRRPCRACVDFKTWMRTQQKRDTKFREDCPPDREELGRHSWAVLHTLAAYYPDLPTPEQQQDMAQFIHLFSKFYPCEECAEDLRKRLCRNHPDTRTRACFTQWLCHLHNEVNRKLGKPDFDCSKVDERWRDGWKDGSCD
Sequence of Large T antigen (P03070 whole entry): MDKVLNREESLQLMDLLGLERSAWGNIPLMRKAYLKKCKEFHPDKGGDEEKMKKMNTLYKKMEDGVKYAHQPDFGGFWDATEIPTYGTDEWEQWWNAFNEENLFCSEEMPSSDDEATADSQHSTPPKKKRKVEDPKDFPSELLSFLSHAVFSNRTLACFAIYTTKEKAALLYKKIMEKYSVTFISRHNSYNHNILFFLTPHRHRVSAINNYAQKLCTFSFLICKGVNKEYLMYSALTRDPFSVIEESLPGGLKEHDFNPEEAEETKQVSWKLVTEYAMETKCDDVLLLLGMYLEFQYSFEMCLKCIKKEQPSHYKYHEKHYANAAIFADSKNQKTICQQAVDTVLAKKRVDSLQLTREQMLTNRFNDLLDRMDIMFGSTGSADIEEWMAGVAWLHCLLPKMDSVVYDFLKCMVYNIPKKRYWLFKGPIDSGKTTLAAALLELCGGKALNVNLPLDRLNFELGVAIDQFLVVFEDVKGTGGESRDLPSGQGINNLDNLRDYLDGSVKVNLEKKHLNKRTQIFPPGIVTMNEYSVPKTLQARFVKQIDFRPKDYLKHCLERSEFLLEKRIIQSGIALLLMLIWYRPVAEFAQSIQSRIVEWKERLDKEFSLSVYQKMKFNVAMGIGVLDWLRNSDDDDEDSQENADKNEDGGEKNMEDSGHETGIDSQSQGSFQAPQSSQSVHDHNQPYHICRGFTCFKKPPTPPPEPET
Sequence of Cytochrome P450 3A4 (P08684 whole entry): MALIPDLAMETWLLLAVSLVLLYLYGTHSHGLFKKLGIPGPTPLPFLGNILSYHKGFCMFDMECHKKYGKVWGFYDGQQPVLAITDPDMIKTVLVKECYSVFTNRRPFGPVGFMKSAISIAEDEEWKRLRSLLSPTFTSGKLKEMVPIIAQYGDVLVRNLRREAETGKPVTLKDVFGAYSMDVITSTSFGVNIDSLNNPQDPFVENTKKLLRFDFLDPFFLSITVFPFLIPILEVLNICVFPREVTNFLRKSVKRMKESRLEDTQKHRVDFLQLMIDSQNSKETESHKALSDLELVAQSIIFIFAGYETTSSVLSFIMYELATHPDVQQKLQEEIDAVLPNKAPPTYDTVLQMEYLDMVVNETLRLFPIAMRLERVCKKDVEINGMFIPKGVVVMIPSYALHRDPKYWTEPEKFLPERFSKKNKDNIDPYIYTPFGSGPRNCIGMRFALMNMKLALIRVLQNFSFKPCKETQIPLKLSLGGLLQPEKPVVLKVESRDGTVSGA

C=CCn1c(C)cc(C(=O)CN2C(=O)c3ccccc3C2=O)c1C
EC50 [1]: 10.1 µM (inconclusive)
AC50 (Cytochrome P450 2C9): inconclusive
EC50 [2]: 8.53 µM (active)
EC50 [3]: 18.7 µM (active)

O=[N+]([O-])c1ccc(NN=Cc2ccc3c(c2)OCO3)nc1
EC50 [4]: 40.5 µM (inactive)
EC50 [5]: > 99 µM (inactive)

COC(=O)c1ccc2c(=O)n(Cc3ccc(C(=O)NCCCN4CCC(C)CC4)cc3)c(=S)[nH]c2c1
CC50 (Vero): 20.9 µM (active)

CCOC(=O)COn1c(-c2cccc(Cl)c2)nc2ccc([N+](=O)[O-])cc21
CC50 [6]: > 20 µM (active)
IC50 (cells [7]): 28.9 µM (active)
IC50 (Protein skinhead-1): > 100 µM (inactive)

COC(=O)[C@H](CCSC)NC(=O)c1cccnc1SC
EC50 (cells [8]): > 350 µM (not active)
EC50 (cells [9]): > 350 µM (not active)

COc1ccc(/C=C/c2cc(=O)c3cc(Cl)ccc3o2)cc1
EC50 [4]: > 99 µM (inactive)
EC50 [5]: 38 µM (inactive)

C=CCSc1cc(C)nc2c(-c3ccccc3)cnn12
EC50 (cells [8]): > 350 µM (not active)
EC50 (cells [9]): 26.8 µM (active)

COc1cc(N/N=C(\C)c2ccc(O)c(C)c2)nc(-c2ccccc2)n1
CC50 (Vero): > 25 µM (active)
AC50 [10]: 3.99 µM (active)

CCOc1ccc(C(=O)Cc2cc(OC)c(OC)cc2[N+](=O)[O-])cc1
AC50 (Cytochrome P450 2C19): 1.41 µM (inconclusive)
AC50 (Cytochrome P450 2C9): inconclusive

CCc1c(O)oc2nnc(C)c-2c1C
AC50 (Cytochrome P450 2C19): 11.2 µM (inconclusive)
AC50 (Cytochrome P450 2C9): inconclusive

Cl.Fc1ccc(CCNCc2cccc(Cl)c2)cc1
AC50 (Cytochrome P450 3A4): 12.6 µM (inconclusive)
AC50 (Cytochrome P450 2C19): 1 µM (inconclusive)
AC50 (Cytochrome P450 2C9): inconclusive

CCOc1cc(CNCCO)cc(Br)c1OCc1ccc(Cl)cc1
CC50 [6]: 12.7 µM (active)
EC50 [11]: 7.16 µM (active)
IC50 (cells [7]): 26.9 µM (active)
CC50 [12]: 11 µM (active)
CC50 [13]: 9.41 µM (active)
EC50 [14]: 7.29 µM (active)

CC(C)c1ccc2[nH]c3c(c2c1)CCC/C3=N\NC(=O)c1ccncc1
CC50 [6]: 11.6 µM (active)
IC50 (cells [7]): 2 µM (active)
EC50 (Streptococcus): 16.9 µM (active)
CC50 [12]: > 20 µM (active)
CC50 [13]: 26 µM (active)
EC50 (Streptokinase A): > 150 µM (not active)
EC50 [15]: 3.54 µM (active)

CCN(CC)c1ccc(NC(=O)c2cccnc2)c(C)c1
AC50 (Cytochrome P450 2C19): 39.8 µM (inconclusive)
AC50 [16]: 0.877 µM (active)
AC50 (Cytochrome P450 2C9): inconclusive
IC50 (Large T antigen): 77.3 µM (active)

COc1ccc(C(=O)NC(=S)NNC(=O)c2ccccc2C)cc1
CC50 (Vero): > 25 µM (active)
EC50 (Streptococcus): 2.83 µM (active)
EC50 [17]: > 150 µM (inconclusive)
EC50 [18]: 1.69 µM (active)
EC50 [15]: 1.31 µM (active)

COc1ccc(CN2C(=O)NC(=O)/C(=C/c3ccc[nH]3)C2=O)cc1
EC50 [4]: > 99 µM (inactive)
EC50 [5]: > 99 µM (inactive)

CCn1c(/C=N/NC(=O)c2ccc(OC)cc2)nc2ccccc21
CC50 [6]: 17.9 µM (active)
IC50 (cells [7]): 15.7 µM (active)
IC50 (H9c2): > 79 µM (inactive)
CC50 [12]: > 20 µM (active)
CC50 [13]: 24.1 µM (active)

O=C(Cc1ccc(S(=O)(=O)N2CCOCC2)s1)Nc1ccc(S(=O)(=O)N2CCCCC2)cc1
EC50 (cells [8]): > 350 µM (not active)
EC50 (cells [9]): > 350 µM (not active)

CC(=O)Nc1ccc2nc(NC(=O)COc3ccccc3C)sc2c1
EC50 (cells [8]): > 350 µM (not active)
EC50 (cells [9]): > 350 µM (not active)

CCCCn1nc2cc(C(=O)NCC3CC3)ccc2c1OCC
AC50 (Cytochrome P450 2C19): 14.1 µM (inconclusive)
AC50 (Cytochrome P450 2C9): inconclusive

— ChEMBL document CHEMBL1201862, “PubChem BioAssay data set” (2004)
